Test results from patent US7348317B2, “Aqueous compositions containing metronidazole” (Dow Pharmaceutical Sciences, priority 2001, dated 2008).

What was measured:
Format in all cases: physicochemical
[1] = Physical stability of 1.0% metronidazole gel solutions with BCD and niacinamide at 5° C.; details: Metronidazole 1.0 % w/w
Protocol: Various gel solutions of Table 1 were prepared with a concentration of 1.0% metronidazole and containing either 0.5% or 1.0% BCD and differing concentrations of niacinamide. The gels were maintained at 5° C. for one week to observe for precipitate or crystal formation.

[2] = Physical stability / stable solubility of metronidazole in gel vehicle containing 0.5% BCD at 5° C.; details: for Result at 5° C., 1 week: BCD 0.5 % w/w, gel vehicle
Protocol: Different concentrations of metronidazole were prepared with the gel vehicle of Example 1 containing 0.5% BCD. The metronidazole (MTZ)/BCD solutions were maintained at 5° C. for one week.

[3] = Physical stability of 1.0% metronidazole gel solutions with BCD and niacinamide at 5° C.
[4] = Physical stability of 1% metronidazole solutions with 0.5% niacin and varying BCD at 5° C.; details: for Results, 5° C., 1 week: MTZ 1.0 % w/w, niacin 0.5 % w/w, pH 5.0+/−0.15
Protocol: The solutions were maintained at 5° C. for one week to observe for crystal or precipitate formation.

[5] = Physical stability of 1.0% metronidazole gel solutions with niacin at 5° C.; details: MTZ 1.0 % w/w, pH 5.0+/−0.15, gel
Protocol: The pH was adjusted to 5.0+/−0.15 with trolamine. The solutions were maintained at 5° C. for one week to observe evidence of precipitation or crystal formation.

[6] = Physical stability of BCD solutions in gel vehicle stored at 5° C.; details: for Results after storage at 5° C.: monitored weekly for two weeks
Protocol: Different solutions according to Table 1 were made with varying concentrations of beta-cyclodextrin (BCD). The solutions of BCD were maintained at 5° C. monitored weekly for two weeks for signs of crystal or precipitate formation.

[7] = BCD at its maximum soluble aqueous concentration (0.5%), 5° C.

Q: What does the source list for `Cc1ncc([N+](=O)[O-])n1CCO` [MTZ, 1-(2-hydroxyethyl)-2-methyl-5-nitroimidazole]?
A: Results at 5° C., 1 week ([1]; BCD 0.5 % w/w, niacinamide 0.5 % w/w): Crystals formed; Results at 5° C., 1 week ([1]; BCD 0.5 % w/w, niacinamide 1.0 % w/w): Clear; Results at 5° C., 1 week ([1]; BCD 0.5 % w/w, niacinamide 2.0 % w/w): Clear; Results at 5° C., 1 week ([1]; BCD 1.0 % w/w, niacinamide 0.5 % w/w): Precipitate formed; Results at 5° C., 1 week ([1]; BCD 1.0 % w/w, niacinamide 1.0 % w/w): Clear; Results at 5° C., 1 week ([1]; BCD 1.0 % w/w, niacinamide 2.0 % w/w): Clear; increase of stable solubility of MTZ by BCD [2, 7]: 0.1%; stable solubility of MTZ in aqueous solution with BCD [2, 7]: 0.8%; Result at 5° C., 1 week ([2]; MTZ 0.7 % w/w): Clear; Result at 5° C., 1 week ([2]; MTZ 0.8 % w/w): Clear; Result at 5° C., 1 week ([2]; MTZ 0.9 % w/w): Crystals formed; stable solubility of MTZ in aqueous solution, unaided ([2]; aqueous solution such as a gel, 5° C., without solubility enhancer): 0.7%; stable solubility of metronidazole in the gel vehicle ([2]; gel vehicle containing 0.5% BCD, 5° C.): about 0.8 % w/w; MTZ aqueous solubility with niacinamide [3]: 1%; increase of MTZ aqueous solubility by niacinamide ([3]; 3% concentration of niacinamide): 0.3%; solubility of MTZ above its unaided solubility with BCD and niacinamide combined ([3]; BCD at amount expected to yield 0.1% increase plus niacinamide at one third of the amount that raises solubility by 0.3%): 0.3%; solubility of MTZ with niacin and BCD combined ([4]; 0.5% niacin combined with 0.5% BCD, pH of about 5): 1%; Results, 5° C., 1 week ([4]; BCD 0.2 % w/w): Crystals formed; Results, 5° C., 1 week ([4]; BCD 0.3 % w/w): Crystals formed; Results, 5° C., 1 week ([4]; BCD 0.5 % w/w): Clear; Results, 5° C., 1 week ([5]; niacin 0.10 % w/w): Crystals formed; Results, 5° C., 1 week ([5]; niacin 0.15 % w/w): Crystals formed; Results, 5° C., 1 week ([5]; niacin 0.25 % w/w): Crystals formed; Results, 5° C., 1 week ([5]; niacin 0.5 % w/w, seven out of eight samples showed crystal formation): Clear/Crystals formed*; Results, 5° C., 1 week ([5]; niacin 1.0 % w/w): Clear; Results, 5° C., 1 week ([5]; niacin 1.2 % w/w): Clear; Results, 5° C., 1 week ([5]; niacin 1.5 % w/w): Clear; Results, 5° C., 1 week ([5]; niacin 1.8 % w/w): Clear; Results, 5° C., 1 week ([5]; niacin 2.0 % w/w): Clear; Results, 5° C., 1 week ([5]; niacin […] w/w): Clear

Q: For `OC[C@H]1O[C@@H]2O[C@H]3[C@H](O)[C@@H](O)[C@@H](O[C@H]4[C@H](O)[C@@H](O)[C@@H](O[C@H]5[C@H](O)[C@@H](O)[C@@H](O[C@H]6[C@H](O)[C@@H](O)[C@@H](O[C@H]7[C@H](O)[C@@H](O)[C@@H](O[C@H]8[C@H](O)[C@@H](O)[C@@H](O[C@H]1[C@H](O)[C@H]2O)O[C@@H]8CO)O[C@@H]7CO)O[C@@H]6CO)O[C@@H]5CO)O[C@@H]4CO)O[C@@H]3CO` [BCD, beta-cyclodextrin], which “saturated BCD solubility in the aqueous solutions” value ([6]; 5° C., aqueous solution such as gel) is on record?
A: about 0.5%

Q: What about the “Results after storage at 5° C.” value ([6]; BCD 0.5 % w/w in gel vehicle of Table 1) of the same molecule?
A: Clear after 2 weeks

Q: And the “Results after storage at 5° C.” value ([6]; BCD 0.6 % w/w in gel vehicle of Table 1)?
A: Crystals formed after 2 weeks

Q: What about the “Results after storage at 5° C.” value ([6]; BCD 0.7 % w/w in gel vehicle of Table 1) of the same molecule?
A: Crystals at one week

Q: What about the “Results after storage at 5° C.” value ([6]; BCD 0.9 % w/w in gel vehicle of Table 1) of the same molecule?
A: Crystals at one week

Q: What about the “Results after storage at 5° C.” value ([6]; BCD 1.0 % w/w in gel vehicle of Table 1) of the same molecule?
A: Crystals at one week

Q: What about the “Results after storage at 5° C.” value ([6]; BCD 1.2 % w/w in gel vehicle of Table 1) of the same molecule?
A: Crystals at one week

Q: What about the “Results after storage at 5° C.” value ([6]; BCD 1.4 % w/w in gel vehicle of Table 1) of the same molecule?
A: Crystals at one week

Q: What about the “Results after storage at 5° C.” value ([6]; BCD 1.5 % w/w in gel vehicle of Table 1) of the same molecule?
A: Crystals at one week

Q: For `NC(=O)c1cccnc1` [niacinamide], which “concentration of niacinamide required to obtain a stable aqueous gel solution of 1.0% metronidazole” value ([3]; niacinamide alone, no BCD) is on record?
A: about 3%
